Measurements reported in publication PMC9813109, “Phase I dose-escalation study of milademetan in patients with relapsed or refractory acute myeloid leukemia” (International Journal of Hematology, 2022).
Entries after “also recorded” stand apart in the source; their conditions may differ.

Assays:
patients with R/R AML = tested on: patients with R/R AML
Procedure: This phase I, open-label, and dose-escalation study conducted at eight centers in Japan recruited patients with R/R AML. Four fixed-dose milademetan schedules were planned (Supplementary Fig. 1A). Increases in the milademetan dose were guided by the modified continual reassessment method (mCRM), with a planned maximum dose of 160 mg/day (Supplementary Fig. 1B). Each cohort (90, 120, and 160 mg) consisted of three to six patients. The first cycle was defined as the dose-limiting toxicity (DLT) evaluation period where patients required hospitalization. The number of treatment cycles was not specified, and the study treatment for each patient was continued unless the discontinuation criteria were met.
In this study, we only assessed the patients with schedule A‒milademetan was administered once daily on days 1–14 followed by a 14-day rest in a 28-day cycle.
Relative dose intensity (in percentage) was calculated as a proportion of dose intensity/planned dose intensity (proportion of dose administered/total treatment duration). Safety assessments were completed by documenting the AEs, ECOG PS, laboratory data, body weight, vital signs, and the results of 12 lead ECGs. Serious adverse events (SAEs) were defined as any AEs that caused mortality, were life-threatening, required hospitalization or prolonged existing hospitalization, caused disability or incapacity, or represented other medical conditions. Patients were followed up until the AEs resolved.
Patients were evaluated for DLT during the first 28 days of cycle 1, defined as any nonhematological AEs of grade ≥ 3 unless attributed to the primary disease course, complications, or concomitant medications. Nonhematological toxicities classified as DLTs were grade 4 AST/ALT, grade 3 AST/ALT lasting ≥ 3 days, grade 3 AST/ALT with grade ≥ 2 total bilirubin, or an inability to complete at least 75% of the prescribed milademetan doses in cycle 1 (28 days) due to grade ≥ 2 events. Hematological toxicities classified as DLTs included failure to recover neutrophil and platelet counts to ≥ 500/mm^3 and ≥ 20,000/mm^3, respectively, that delayed the initiation of cycle 2 for > 2 weeks. DLT evaluation findings were used to determine the MTD. AEs that were not classified as DLTs included grade 3 fatigue of < 3 days; grade 3 nausea or vomiting that resolved to grade ≤ 2 within 2 days after antiemetic therapy; grade 3 diarrheas that resolved to grade ≤ 2 within 2 days after antidiarrheal therapy; and alopecia, febrile neutropenia, and transient laboratory abnormalities either without symptoms or requiring continuous treatment. Examples of non-DLT AEs were grade ≥ 3 alkaline phosphatases, uric acid, amylase, lipase, or hyponatremia that resolved within 72 h of onset. The Common Terminology Criteria for Adverse Events (version 5.0) were used for grading, and each AE was coded using the Medical Dictionary for Regulatory Activities (version 21.1). Criteria for drug dose reduction or interruption are described in Supplementary material.
All patients who received at least one milademetan dose were included in the safety analysis set. […] The efficacy analysis set included all patients who received at least one milademetan dose and underwent efficacy evaluation at least once after treatment initiation. […] The biomarker analysis set included all patients who received at least one milademetan dose, whose specimens were collected for biomarker studies, and who had available measurement data. Following the first cycle, doses for subsequent cohorts were guided by an mCRM based on a Bayesian logistic regression model incorporating the escalation with the overdose control principle, clinical evaluation of the toxicological profile, and pharmacokinetics and pharmacodynamics information.

MDM2–p53 interaction = tested on: MDM2–p53 interaction; design: method as in PMID 31310659, PMID 30724592; conditions: in vitro studies; cited from earlier work
Platelet = tested on: Platelet; design: species or system human; conditions: in vivo
From the text: Patients were followed up until the AEs resolved.

[1] = tested on: patients with solid tumors or lymphomas; conditions: QD 21/28-day schedule, Japanese phase I; cited from earlier work

Structure (SMILES): CC1(C)CCC2(CC1)N[C@@H](C(=O)N[C@@H]1CC[C@@H](C(N)=O)OC1)[C@H](c1ccnc(Cl)c1F)[C@]21C(=O)Nc2cc(Cl)ccc21 [milademetan]
- Deaths or AEs leading to treatment discontinuation (patients with R/R AML; 14 patients): No deaths or AEs leading to treatment discontinuation occurred; also recorded: No death or AEs that caused treatment discontinuation were noted
- Skin infection, All grades (patients with R/R AML; Total (n = 14)): 1 (7.1) n (%)
- Skin infection, Grade ≥ 3 (patients with R/R AML; Total (n = 14)): 1 (7.1) n (%)
- Anemia, All grades (patients with R/R AML; human, in vivo): 5 (35.7) n (%)
- Anemia, Grade ≥ 3 (patients with R/R AML; human, in vivo): 5 (35.7) n (%)
- Anemia, patients with TEAE regardless of causality (patients with R/R AML; human, in vivo): 35.7%
- Decreased appetite, All grades (patients with R/R AML; human, in vivo): 9 (64.3) n (%)
- Decreased appetite, Grade ≥ 3 (patients with R/R AML; human, in vivo): 1 (7.1) n (%)
- Decreased appetite, patients with TEAE regardless of causality (patients with R/R AML; human, in vivo): 64.3%
- Diarrhea, All grades (patients with R/R AML; human, in vivo): 3 (21.4) n (%)
- Diarrhea, Grade ≥ 3 (patients with R/R AML; human, in vivo): 1 (7.1) n (%)
- Dry mouth, All grades (patients with R/R AML; human, in vivo): 3 (21.4) n (%)
- Dry mouth, Grade ≥ 3 (patients with R/R AML; human, in vivo): 0 (0.0) n (%)
- Febrile neutropenia, All grades (patients with R/R AML; human, in vivo): 7 (50.0) n (%)
- Febrile neutropenia, Grade ≥ 3 (patients with R/R AML; human, in vivo): 7 (50.0) n (%)
- Febrile neutropenia, patients with TEAE regardless of causality (patients with R/R AML; human, in vivo): 50%
- Hypokalemia, All grades (patients with R/R AML; human, in vivo): 4 (28.6) n (%)
- Hypokalemia, Grade ≥ 3 (patients with R/R AML; human, in vivo): 1 (7.1) n (%)
- Leukopenia, All grades (patients with R/R AML; human, in vivo): 1 (7.1) n (%)
- Leukopenia, Grade ≥ 3 (patients with R/R AML; human, in vivo): 1 (7.1) n (%)
- Malaise, All grades (patients with R/R AML; human, in vivo): 3 (21.4) n (%)
- Malaise, Grade ≥ 3 (patients with R/R AML; human, in vivo): 0 (0.0) n (%)
- Nausea, All grades (patients with R/R AML; human, in vivo): 6 (42.9) n (%)
- Nausea, Grade ≥ 3 (patients with R/R AML; human, in vivo): 0 (0.0) n (%)
- Nausea, patients with TEAE regardless of causality (patients with R/R AML; human, in vivo): 42.9%
- Neutropenia, All grades (patients with R/R AML; human, in vivo): 2 (14.3) n (%)
- Neutropenia, Grade ≥ 3 (patients with R/R AML; human, in vivo): 2 (14.3) n (%)
- Neutrophil count decreased, All grades (patients with R/R AML; human, in vivo): 1 (7.1) n (%)
- Neutrophil count decreased, Grade ≥ 3 (patients with R/R AML; human, in vivo): 1 (7.1) n (%)
- Number of patients with SAEs (patients with R/R AML; human, in vivo): 4 patients
- Patients with TEAEs leading to study treatment interruption (patients with R/R AML; human, in vivo): 21.4%
- Patients with a TEAE that required dose reduction (acute kidney injury) (patients with R/R AML; human, in vivo): 7.1%
- Patients with grade ≥ 3 TEAEs (patients with R/R AML; human, in vivo): 71.4%
- Pharyngitis, All grades (patients with R/R AML; human, in vivo): 1 (7.1) n (%)
- Pharyngitis, Grade ≥ 3 (patients with R/R AML; human, in vivo): 1 (7.1) n (%)
- Platelet count decreased, All grades (patients with R/R AML; human, in vivo): 3 (21.4) n (%)
- Platelet count decreased, Grade ≥ 3 (patients with R/R AML; human, in vivo): 3 (21.4) n (%)
- Pneumonia, All grades (patients with R/R AML; human, in vivo): 4 (28.6) n (%)
- Pneumonia, Grade ≥ 3 (patients with R/R AML; human, in vivo): 3 (21.4) n (%)
- Serious TEAE (patients with R/R AML; human, in vivo): 4 (28.6) n (%)
- Stomatitis, All grades (patients with R/R AML; human, in vivo): 3 (21.4) n (%)
- Stomatitis, Grade ≥ 3 (patients with R/R AML; human, in vivo): 0 (0.0) n (%)
- TEAE (patients with R/R AML; human, in vivo): 13 (92.9) n (%)
- TEAE by CTCAE grade ≤ 2 (patients with R/R AML; human, in vivo): 3 (21.4) n (%)
- TEAE by CTCAE grade ≥ 3 (patients with R/R AML; human, in vivo): 10 (71.4) n (%)
- TEAE leading to treatment interruption: decreased appetite (patients with R/R AML; human, in vivo): 1 n
- TEAE leading to treatment interruption: decreased neutrophil count (patients with R/R AML; human, in vivo): 1 n
- TEAE leading to treatment interruption: decreased platelet count (patients with R/R AML; human, in vivo): 1 n
- TEAE leading to treatment interruption: diarrhea (patients with R/R AML; human, in vivo): 1 n
- TEAE leading to treatment interruption: dysgeusia (patients with R/R AML; human, in vivo): 1 n
- TEAE leading to treatment interruption: febrile neutropenia (patients with R/R AML; human, in vivo): 2 n
- Thrombocytopenia, All grades (patients with R/R AML; human, in vivo): 4 (28.6) n (%)
- Thrombocytopenia, Grade ≥ 3 (patients with R/R AML; human, in vivo): 4 (28.6) n (%)
- Tolerability (patients with R/R AML; human, in vivo): well tolerated up to 160 mg
- Vomiting, All grades (patients with R/R AML; human, in vivo): 4 (28.6) n (%)
- Vomiting, Grade ≥ 3 (patients with R/R AML; human, in vivo): 0 (0.0) n (%)
- White blood cell count decreased, All grades (patients with R/R AML; human, in vivo): 1 (7.1) n (%)
- White blood cell count decreased, Grade ≥ 3 (patients with R/R AML; human, in vivo): 1 (7.1) n (%)
- Recommended dose (patients with R/R AML; human, in vivo, 28 days): 160 mg
- Dose dependence of frequency of TEAEs that were grade ≥ 3, serious, or led to dose reduction/treatment interruption (patients with R/R AML; in vivo): No dose-dependent increase was observed
- Grade 4 TEAE: decreased neutrophil count (patients with R/R AML; in vivo): one
- Grade 4 TEAE: decreased platelet count (patients with R/R AML; in vivo): three
- Grade 4 TEAE: neutropenia (patients with R/R AML; in vivo): two
- Grade 4 TEAE: thrombocytopenia (patients with R/R AML; in vivo): two
- Number of reported SAEs (serious TEAEs) (patients with R/R AML; in vivo): Five
- Other laboratory parameters (hematology, blood chemistry, urinalysis), vital signs, ECG parameters (patients with R/R AML; in vivo): No clinically relevant changes from baseline or consistent trends were observed
- SAE: febrile neutropenia (patients with R/R AML; in vivo): two
- SAE: pneumonia (patients with R/R AML; in vivo): three
- Maximum tolerated dose (MTD) (patients with R/R AML; up to 160 mg, QD 14/28 schedule): not reached
- Effect on MDM2–p53 interaction (MDM2–p53 interaction): inhibits the MDM2–p53 interaction
- Mean platelet count vs baseline (Platelet): decreased from the baseline in all cohorts
- Maximum tolerated dose (MTD) [1]: 90 mg
